Entries after “also recorded” stand apart in the source; their conditions may differ. Marks after values point to notes of the source that are not given here. l = locked nucleic acid (LNA); d = 2'-deoxy (DNA)
What was measured:
miR-328 = test: In vitro inhibition of miR-328 expression by antisense oligonucleotides transfected into ARPE-19 RPE cells (qRT-PCR, normalized to U6); format: cell-based, human; settings: for inhibitory effect on miR-328 expression: RPE cells (ARPE-19), Lipofectamine 2000 transfection, 24 hours; for inhibition of miR-328 expression in vitro (in words): RPE cells, 30, 50 and 100 nM
Experimental: Cell Culture, Treatments, and Transfection
An RPE cell line called “ARPE-19” was grown in Dulbecco's modified Eagle's medium (DMEM)/F12 medium. The cell line was grown with 1% penicillin/streptomycin and 10% heat-inactivated fetal bovine serum (FBS) at 37° C. in a humidified atmosphere of 95% air/[…] carbon dioxide (CO2). To conduct the transfection experiments, cells were seeded into a 12-well plate at a density of 1×10^5 cells/well. After achieving 70% confluence in a well, antisense oligonucleotides (concentrations of 30, 50 and 100 nM) were transfected with Lipofectamine 2000 (Invitrogen) according to the manufacturer's instructions. After 24 hours of incubation, cells were lysed for further studies.
Detect the Inhibition of miR-328 Expression by Antisense Oligonucleotides
Total RNA was extracted from cultured cells using Trizol according to the manufacturer's instructions. RNA purity was checked using A260/A280 readings. miR-328 was first reversed transcribed to miR-328 cDNA using the following procedure: 5 ng of RNA was reverse transcribed with miR-328 specific primer and MultiScribe reverse transcriptase kit (Applied Biosystems). To measure the miR-328 expression, quantitative real-time PCR was performed on an ABI 7500 real-time PCR machine (Applied Biosystems) with miR-328 specific probe according to manufacturer's instructions (Applied Biosystems). The inhibitory effect by antisense oligonucleotides was evaluated by measuring the level of miR-328 cDNA by quantitative real-time PCR. The expression level of miR-328 was normalized to that of a small non-coding nuclear RNA U6 as the internal control.

[1] = tested on: myopia-induced C57BL/6J mice; test: Example 6: confirmation of DNA 16mer by a CRO in myopia-induced mice; format: in vivo; settings: for left eye axial, mm Mean: left eye uncovered
Source text: The procedure of myopia induction is: The 21 days old C57BL/6J mice were purchased from the National Laboratory Animal Center, Taiwan. All animal experiments were in compliance with the ARVO Statement for the Use of Animals in Ophthalmic and Vision Research. The procedure of myopia induction is described briefly as the following: Right eyes of the 23 days old mice were covered for 4 weeks to induce myopia and the left eyes were uncovered. Then the right eyes of the myopia-induced mice were treated with […], of saline (i.e. negative control group), 1% atropine (i.e. positive control group), 10 nM, 100 nM, and 1 μM of DNA 16mer on 30th, 37th and 44th day. Mice were sacrificed on 51th day and the eyes were collected. The isolated eyes were photographed under a dissection microscope and the axial lengths were measured using imageJ and a proprietary software for automatic measure. Myopia (nearsightedness) causes elongation of axial length, which is the major pathological change in myopia. The difference of axial length (i.e. delta axial length) between the covered right eye and the non-covered left eye of the same mouse indicates the severity of myopia.

myopic pigmented rabbits = test: Example 7: DNA 16mer in myopic pigmented rabbits, delta axial length by A-scan; format: in vivo, rabbit; settings: 20 μL to right eye every other day from day 35, AXL of day 61
Experimental: The procedure of myopia induction: The 3 days old pigmented rabbits were purchased from the DA-ZONG livestock farm, Taiwan. All animal experiments were in compliance with the ARVO Statement for the Use of Animals in Ophthalmic and Vision Research. On the age of 7 days, the right eye of the rabbit was covered for 8 weeks to induce myopia, and the left eye left uncovered. The axial lengths (AXL) of both eyes were measured by A-scan (Sonomed®, PACSCAN 300A, USA) once a week since day 21. We defined myopia as right eye AXL is longer than left eye AXL by 0.2 mm or longer on day 35. If a rabbit reached this defined criterion, the right eye of such a myopic rabbit was treated with […], of saline (i.e. control group) or DNA16mer (20 μL) at 10 μM or 50 uM every other day since day 35 till day 63. The final AXL measured on day 61 was used to obtain to calculate the difference between right AXL and left AXL (i.e. delta AXL). If there is no therapeutic effect, the delta AXL will be a positive value.

Safety in animal studies = format: in vivo
[2] = tested on: myopia-induced C57BL/6J mice; test: Example 5: validation of DNA 16mer and LNA 403 versus atropine in myopia-induced mice; format: in vivo; settings: for Mean of delta AXL: right eye covered 4 weeks, 30 μL on day 30, 37 and 44, day 51
Experimental: (§1) The 21 days old C57BL/6J mice were purchased from the National Laboratory Animal Center, Taiwan. All animal experiments were in compliance with the ARVO Statement for the Use of Animals in Ophthalmic and Vision Research. The procedure of myopia induction is described briefly as the following: Right eyes of the 23 days old mice were covered for 4 weeks to induce myopia (i.e. nearsightedness) and the left eyes were uncovered. Then the right eyes of the myopia-induced mice were treated with 30 μL of saline (i.e. negative control group), 1% atropine (i.e. positive control group), DNA16mer or LNA403 at 1 μM on 30th, 37th and 44th day. Mice were sacrificed on 51th day and the eyes were collected. The isolated eyes were photographed under a dissection microscope and the axial lengths were measured using imageJ and a proprietary software for automatic measure. Myopia (nearsightedness) causes elongation of axial length, which is the major pathological change in myopia. The difference of axial length (i.e. delta axial length) between the covered right eye and the non-covered left eye of the same mouse indicates the severity of myopia. Statistical evaluation was done by using Mann-Whitney U test. Analysis with p-values <0.05 being considered significant.

[3] = tested on: myopia-induced C57BL/6J mice; test: Example 4: efficacy in myopia-induced mice, delta axial length; format: in vivo; settings: for reduction of delta axial length compared to control group: 1 μM on day 30, 37 and 44, versus saline; for activity in treating myopia in mice (in words) / average delta axial length compared with control animals (in words) / Delta axial length, mm mean (SD): 1 μM; for activity in treating myopia in mice (in words): decrease of average axial length; for average delta axial length compared with control animals (in words): versus saline, Mann-Whitney U test; for Delta axial length, mm mean (SD): right (myopia) minus left eye, 30 μL to right eye on day 30, 37 and 44, eyes collected day 51
Experimental: as §1, with “covered” for “covered for 4 weeks”, “(i.e.” for “(i.e. negative”, “DNA16mer, DNA17mer, LNA403, LNA404,” for “1% atropine (i.e. positive control group), DNA16mer”, “LNA405,” for “LNA403”, “[…]” for “imageJ and a proprietary software for automatic measure.”, “p-values<0.05” for “p-values <0.05”

Compound | inhibitory effect on miR-328 expression (miR-328; 30 nM) | inhibitory effect on miR-328 expression (miR-328; 50 nM) | inhibitory effect on miR-328 expression (miR-328; 100 nM) | inhibition of miR-328 expression in vitro (in words) (miR-328) | reduction of delta axial length compared to control group [3] | Delta axial length, mm mean (SD) [3] | also measured
5′-AGGGCAGAGAGGGCCA-3′ (DNA, backbone not given here) [DNA 16mer, anti-sense miR-328 oligodeoxyribonucleotide] | 39% | 35% | 49% | inhibited | 0.077 mm | −0.059 (0.061)* mm | Delta axial length Mean ([1]; 10 nM): −0.056; right eye axial, mm Mean ([1]; 10 nM to right (myopia) eye): 3.083 mm; left eye axial, mm Mean ([1]; 10 nM to right eye): 3.139 mm; Delta axial length Mean ([1]; 100 nM): −0.069; right eye axial, mm Mean ([1]; 100 nM to right (myopia) eye): 3.023 mm; left eye axial, mm Mean ([1]; 100 nM to right eye): 3.092 mm; Delta axial length Mean ([1]; 1 μM): −0.058; right eye axial, mm Mean ([1]; 1 μM to right (myopia) eye): 3.052 mm; left eye axial, mm Mean ([1]; 1 μM to right eye): 3.110 mm; Delta axial length Mean (myopic pigmented rabbits; 10 μM): −0.234; Delta axial length Mean (myopic pigmented rabbits; 50 μM): −0.370; safety in animal studies (in words) (Safety in animal studies): safe; efficacy in reducing elongation of eyeball compared with 1% atropine (in words) ([2]; 1 μM): more effective than 1% atropine; Mean of delta AXL ([2]; 1 μM): −0.055; activity in treating myopia in mice (in words) ([3]; listed as 16mer): exhibited an activity for treating myopia; activity in treating myopia in mice (in words) ([3]; listed as DNA16mer): effective in treating myopia in mice; average delta axial length compared with control animals (in words) [3]: statistically significantly smaller
CN1[C@@H]2CC[C@H]1C[C@@H](OC(=O)C(CO)c1ccccc1)C2 (stereo partly drawn) [Atropine, atropine, reference compound] |  |  |  |  |  |  | Delta axial length Mean ([1]; 1% atropine): −0.060; right eye axial, mm Mean ([1]; 1% atropine to right (myopia) eye): 3.049 mm; left eye axial, mm Mean ([1]; 1% atropine to right eye): 3.108 mm; Mean of delta AXL ([2]; 1% atropine): −0.037
5′-+G*+A*+A*+G*G*G*C*A*G*A*G*A*G*G*+G*+C*+C*+A-3′ (antisense GAAGGGCAGAGAGGGCCA; sugars from the 5' end l4 d10 l4, all phosphorothioate, methylation of C not given here) [LNA405, LNA-modified and PS bond-modified anti-sense miR-328 oligonucleotide, 18 mer] | 98% | 98% | 99% | inhibited | 0.035 mm | −0.017 (0.054) mm | 
5′-AAGGGCAGAGAGGGCCA-3′ (DNA, backbone not given here) [DNA 17mer, anti-sense miR-328 oligodeoxyribonucleotide] | 43% | 41% | 48% | inhibited | 0.065 mm | −0.047 (0.073)* mm | safety in animal studies (in words) (Safety in animal studies): safe; activity in treating myopia in mice (in words) ([3]; listed as 17mer): exhibited an activity for treating myopia; activity in treating myopia in mice (in words) ([3]; listed as DNA17mer): effective in treating myopia in mice; average delta axial length compared with control animals (in words) [3]: statistically significantly smaller
5′-+G*+G*+A*+A*G*G*G*C*A*G*A*G*A*G*G*+G*+C*+C*+A-3′ (antisense GGAAGGGCAGAGAGGGCCA; sugars from the 5' end l4 d11 l4, all phosphorothioate, methylation of C not given here) [LNA404, LNA-modified and PS bond-modified anti-sense miR-328 oligonucleotide, 19 mer] | 98% | 98% | 99% | inhibited | 0.025 mm | −0.007 (0.100) mm | 
5′-GGGCAGAGAGGGCCA-3′ (DNA, backbone not given here) [15mer, anti-sense miR-328 oligodeoxyribonucleotide] |  |  |  | did not show any activity; also recorded: no inhibitory effect |  |  | 
5′-+C*+G*+G*+A*A*G*G*G*C*A*G*A*G*A*G*G*+G*+C*+C*+A-3′ (antisense CGGAAGGGCAGAGAGGGCCA; sugars from the 5' end l4 d12 l4, all phosphorothioate, methylation of C not given here) [LNA403, LNA-modified and PS bond-modified anti-sense miR-328 oligonucleotide, 20 mer] | 97% | 97% | 90% | inhibited | 0.054 mm | −0.036 (0.079)* mm | efficacy in reducing elongation of eyeball compared with 1% atropine (in words) ([2]; 1 μM): more effective than 1% atropine; Mean of delta AXL ([2]; 1 μM): −0.052; activity in treating myopia in mice (in words) [3]: effective in treating myopia in mice; activity in treating myopia in mice (in words) ([3]; listed as 403): exhibited an activity for treating myopia

Source: US10179913B2, “MicroRNA-328 anti-sense composition and therapeutic use” (KAOHSIUNG MEDICAL UNIVERSITY, priority 2015, dated 2019)
